Source: patent US20230295171A1, “FUSED HETEROAROMATIC PYRROLIDINONES” (Calithera Biosciences, Inc., priority 2009, published 2023)

The compounds below were run against SYK (Homo sapiens (Human), UniProt P43405) (assay: SYK inhibition assay (phosphorylation of FAM-labeled SYK-specific substrate, Caliper LC-3000)). Details: SYK kinase domain (residues 356-635); 5FAM-KKKKEEIYFFFG-NH2 substrate, ATP, 60 min at RT; pIC50 = -log(IC50), IC50 molar.
Format: biochemical
Experimental: SYK protein is prepared from cDNA encoding human spleen tyrosine kinase and is expressed in insect cells using a baculovirus expression vector. […] The recombinant bacmid DNA is isolated and transfected into Sf9 insect cells. Recombinant virus is harvested 72 h after transfection. High titer viral stock is prepared by infecting Sf9 cells at a multiplicity of infection (MOI) of approximately 0.01. A suspension of Sf9 cells (10 L) is infected with recombinant virus (MOI=5) and is incubated in a Wave Bioreactor (GE-Healthcare) for 48 h. The cells are harvested and stored at −80° C.
To purify the expressed protein, the frozen Sf9 cells (10 L) are broken into small (<1 cm) particles and suspended in a lysis buffer (300 mL) containing 20 mM Tris (pH 7.6), 0.25 mM TCEP, 100 mM NaCl, 5% glycerol and a protease inhibitor. The suspension is stirred at RT until completely thawed, lysed an additional 2-4 min on a rotary blade homogenizer, and then centrifuged at 4200 g for 1 h. Following centrifugation, the supernatant is poured through cheese cloth and combined with a nickel chelating resin (Probond Resin™, Invitrogen) which is pre-equilibrated in a wash buffer containing 10 mM Tris (pH 7.6), 0.25 mM TCEP, 300 mM NaCl, 5% glycerol, and 20 mM imidazole. The mixture is agitated for 3 h in a cold room and then centrifuged at 900 g for 10 min. The resin is dispersed in wash buffer (50 mL), centrifuged for 10 min at 900 g, re-dispersed in a small amount of wash buffer (5 mL), and then pour into a disposable Poly-Prep chromatography column, through which wash buffer is passed by gravity until no protein is observed in coomassie buffer (about 120 mL of wash buffer). An elution buffer (30 mL) containing 10 mM HEPES (pH 7.4), 150 mM NaCl, 10% glycerol, 5 mM DTT, and 400 mM imidazole is used to elute the SYK protein from the resin. The eluate is concentrated (5 mL) and further purified on a Superdex 200 column (1.2 mL/min for 160 min, 10 mM HEPES (pH 7.4), 10 mM NaCl, 10 mM MgCl, 0.1 mM EDTA, and 0.25 mM TCEP). The chromatographed fractions are run on SDS-PAGE and the requisite fractions are pooled and concentrated. Final delivery buffer is 10 mM HEPES (pH 7.4), 10 mM Methione, 150 mM NaCl, 10% glycerol, 5 mM DTT.
SYK inhibition is determined using a black 384 well plate format in buffer containing 50 mM HEPES, 10 mM NaCl, 10 mM MgCl2, 0.2 mM EDTA, 0.01% EDA (Brij® 35), 1 mM DTT, and 0.1 mg/ml BSA at pH 7.3. Each test compound is prepared in DMSO using 2-fold serial dilutions for 11 data points, which are added to the buffer so that each dilution contains 3% DMSO. […] The reaction mixture is incubated at RT for 60 min, and quenched by adding 50 mM Hepes, 30 mM EDTA, 0.1% Triton X-100 (pH 7.3). To quantify the fluorescent-labeled substrate and product following reaction, the test plate is loaded on a Caliper LC-3000, which measures percent of conversion by microfluidic-based separation. Corresponding IC50 values are calculated by non-linear curve fitting of the compound concentrations and percent of inhibition to the standard IC50 equation and reported as pIC50, i.e., −log(IC50), where IC50 is molar concentration.

Row | Structure (SMILES) | SYK Inhibition (pIC50)
1 | Cn1cc(-c2nc(N[C@@H]3CC(F)(F)C[C@@H]3N)c(F)c3c2C(=O)NC3)cn1 (relative stereo) [Example 66, 6-(cis-2-Amino-4,4-difluorocyclopentylamino)-7-fluoro-4-(1-methyl-1H-pyrazol-4-yl)-1H-pyrrolo[3,4-c]pyridin-3(2H)-one] | 6.3
2 | Cc1cccc(Nc2nc(N[C@@H]3COC[C@@H]3N)cc3c2C(=O)NC3)c1 (relative stereo) [Example 58, 6-(cis-4-Aminotetrahydrofuran-3-ylamino)-4-(m-tolylamino)-1H-pyrrolo[3,4-c]pyridin-3(2H)-one] | 5.8
3 | N[C@@H]1[C@H](Nc2nc(-c3cnn(C(F)F)c3)c3c(c2F)CNC3=O)CCCC1(F)F (relative stereo) [Example 68, 6-(cis-2-Amino-3,3-difluorocyclohexylamino)-4-(1-(difluoromethyl)-1H-pyrazol-4-yl)-7-fluoro-1H-pyrrolo[3,4-c]pyridin-3(2H)-one] | 7.0
4 | Cc1cccc(Nc2nc(N[C@@H]3CCCC[C@@H]3O)nc3c2C(=O)NC3)c1 (relative stereo) [Example 11, cis-2-(2-Hydroxycyclohexylamino)-4-(m-tolylamino)-6,7-dihydro-5H-pyrrolo[3,4-d]pyrimidin-5-one] | 5.9
5 | Cc1cccc(Nc2nc(N[C@H]3COCC[C@H]3N)cc3c2C(=O)NC3)c1 [Example 86, 6-((3R,4R)-4-Aminotetrahydro-2H-pyran-3-ylamino)-4-(m-tolylamino)-1H-pyrrolo[3,4-c]pyridin-3(2H)-one] | 5.6
6 | N[C@@H]1[C@H](Nc2nc(-c3cnn(C4CC4)c3)c3c(c2F)CNC3=O)CCCC1(F)F (relative stereo) [Example 69, 6-(cis-2-amino-3,3-difluorocyclohexylamino)-4-(1-cyclopropyl-1H-pyrazol-4-yl)-7-fluoro-1H-pyrrolo[3,4-c]pyridin-3(2H)-one] | 6.8
7 | Cn1cc(-c2nc(N[C@@H]3CCCC(F)(F)[C@@H]3N)c(F)c3c2C(=O)NC3)cn1 (relative stereo) [Example 67, 6-(cis-2-Amino-3,3-difluorocyclohexylamino)-7-fluoro-4-(1-methyl-1H-pyrazol-4-yl)-1H-pyrrolo[3,4-c]pyridin-3(2H)-one] | 7.4
